# Like-named read-outs stand apart in the source and are kept apart here. Where no end group is shown, it is not given here.
# Test system: human prostate cancer cell line (PC-3)
# Type: cell-based
# Details: 48 h
# Experimental: CAKI2 cells were cultured and adjusted to cell count of about 5×10^3 cells per single well of 96-well plate. The amount of medium at this time was made to be 100 μL per well. Next, the 96-well plate was arranged in a CO2 incubator and incubated for about 1 day (21 hours to 24 hours) under conditions of 37° C. and 5% CO2. […] Cell viability (%) was determined in the manner described below. […] Following completion of incubation, cell viability (%) was evaluated using a colorimetric method consisting of recovering the cell culture liquid containing the above-mentioned reagent together with measuring absorbance at wavelength of 450 nm based on reduction of tetrazolium salt (value corrected for absorbance at a wavelength of 650 nm: A450 to A650). More specifically, the cell viability (%) of each test cell line was calculated from the measured absorbance as a relative value based on cell viability of 100% for the measured value (measured absorbance) of the comparison test group that underwent incubation for 48 hours as described above in only medium not containing peptide. Antitumor activity was evaluated for Sample 2 in above-mentioned Test Example 1 targeted at multiple types of human-derived cultured tumor cells. […]
substance,measurement,setting,value
FIGNLALSDLLAGVAYTANLLLKKRTLRKNDRKKR-NH2 [Sample 2],Cell Viability (%),12.5 μM,25.6%
same,Cell Viability (%),25 μM,2.5%

# From US11339203B2, “Antitumor peptide and use thereof” (TOAGOSEI CO., LTD., priority 2018, dated 2022)
